Assay results reported in PubChem BioAssay AID256 (DTP/NCI, 2004).
Several values for one entry are separate records, joined by “and”; a condition that tells them apart may be missing. Equal entries are not always repeated. Toxic doses and inconclusive results are not listed.

System: CD2F1 mice, L1210 leukemia ip, survival T/C
Test: NCI In Vivo Anticancer Drug Screen. Data for tumor model L1210 Leukemia (intraperitoneal) in CD2F1 (CDF1) mice
Settings: higher = longer survival
Procedure, shortened: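 Transplantable tumor in mice; compound-treated vs vehicle-treated groups. Read-out = treated/control ratio of the measured endpoint.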

[1] = endpoint: mean survival time, dose: 100.0 mg/kg/injection, schedule: Q04DX003 (ip), vehicle: saline with Tween-80
[2] = endpoint: mean survival time, dose: 200.0 mg/kg/injection, schedule: Q04DX003 (ip), vehicle: saline with Tween-80
[3] = endpoint: mean survival time, dose: 400.0 mg/kg/injection, schedule: Q04DX003 (ip), vehicle: saline with Tween-80

SMILES: N#CCCOS(=O)(=O)c1cccc([N+](=O)[O-])c1
- T/C [1]: 98 % of control
- T/C [2]: 101 % of control
- T/C [3]: 93 % of control

SMILES: CN(C)CCNc1ccc(CO)c2sc3ccc(O)cc3c(=O)c12
- T/C (endpoint: median survival time, dose: 25.0 mg/kg/injection, schedule: Q01DX005 (ip), vehicle: saline with Tween-80): 107 % of control
- T/C (endpoint: median survival time, dose: 72.0 mg/kg/injection, schedule: Q01DX005 (ip), vehicle: saline with Tween-80): 155 % of control
- T/C (endpoint: median survival time, dose: 100.0 mg/kg/injection, schedule: Q01DX005 (ip), vehicle: saline with Tween-80): 212 % of control
- T/C (endpoint: median survival time, dose: 120.0 mg/kg/injection, schedule: Q01DX005 (ip), vehicle: saline with Tween-80): 183 % of control
- T/C (endpoint: median survival time, dose: 333.33 mg/kg/injection, schedule: Q01DX005 (ip), vehicle: saline with Tween-80): 112 % of control
- T/C (endpoint: median survival time, dose: 400.0 mg/kg/injection, schedule: Q01DX005 (ip), vehicle: saline with Tween-80): 113 % of control and 97 % of control
- T/C (endpoint: median survival time, dose: 555.55 mg/kg/injection, schedule: Q01DX005 (ip), vehicle: saline with Tween-80): 111 % of control

SMILES: O=[N+]([O-])O.[Cr+3].[NH2-].[NH2-].[NH2-].[NH2-].[NH2-].[NH2-]
- T/C (endpoint: mean survival time, dose: 6.25 mg/kg/injection, schedule: Q01DX009 (ip), vehicle: saline sonified): 88 % of control
- T/C (endpoint: mean survival time, dose: 12.5 mg/kg/injection, schedule: Q01DX009 (ip), vehicle: saline sonified): 97 % of control
- T/C (endpoint: mean survival time, dose: 25.0 mg/kg/injection, schedule: Q01DX009 (ip), vehicle: saline sonified): 90 % of control

SMILES: CCOC(=O)Nc1cc(NCC(=O)CCc2ccccc2)c([N+](=O)[O-])c(N)n1
- T/C (endpoint: mean survival time, dose: 100.0 mg/kg/injection, schedule: Q01DX001 (ip), vehicle: Klucel (hydroxypropylcellulose) (HPC)): 93 % of control
- T/C (endpoint: mean survival time, dose: 200.0 mg/kg/injection, schedule: Q01DX001 (ip), vehicle: Klucel (hydroxypropylcellulose) (HPC)): 91 % of control
- T/C (endpoint: mean survival time, dose: 400.0 mg/kg/injection, schedule: Q01DX001 (ip), vehicle: Klucel (hydroxypropylcellulose) (HPC)): 91 % of control

SMILES: N#CSCN1C(=O)C=CC1=O
- T/C (endpoint: mean survival time, dose: 1.25 mg/kg/injection, schedule: Q01DX009 (ip), vehicle: saline with Tween-80): 93 % of control
- T/C (endpoint: mean survival time, dose: 2.5 mg/kg/injection, schedule: Q01DX009 (ip), vehicle: saline with Tween-80): 89 % of control
- T/C (endpoint: mean survival time, dose: 5.0 mg/kg/injection, schedule: Q01DX009 (ip), vehicle: saline with Tween-80): 93 % of control

SMILES: Cc1nc2c(O)cccn2c(=O)c1Cl
- T/C [1]: 102 % of control

SMILES: Cc1sc2ccccc2[n+]1C
- T/C (endpoint: mean survival time, dose: 12.5 mg/kg/injection, schedule: Q01DX009 (ip), vehicle: Klucel (hydroxypropylcellulose) (HPC)): 93 % of control
- T/C (endpoint: mean survival time, dose: 25.0 mg/kg/injection, schedule: Q01DX009 (ip), vehicle: Klucel (hydroxypropylcellulose) (HPC)): 95 % of control
- T/C (endpoint: mean survival time, dose: 50.0 mg/kg/injection, schedule: Q01DX009 (ip), vehicle: Klucel (hydroxypropylcellulose) (HPC)): 87 % of control

SMILES: NC(=O)N/N=C\c1ccc(O)cn1
- T/C (endpoint: mean survival time, dose: 100.0 mg/kg/injection, schedule: Q01DX009 (ip), vehicle: saline with Tween-80): 93 % of control
- T/C (endpoint: mean survival time, dose: 200.0 mg/kg/injection, schedule: Q01DX009 (ip), vehicle: saline with Tween-80): 93 % of control
- T/C (endpoint: mean survival time, dose: 400.0 mg/kg/injection, schedule: Q01DX009 (ip), vehicle: saline with Tween-80): 92 % of control

SMILES: CCCC1(CC(C)CC)C(=O)NC(=O)NC1=O (stereo not given) (tested in a mixture with another compound)
- T/C (endpoint: mean survival time, dose: 75.0 mg/kg/injection, schedule: Q01DX001 (ip), vehicle: saline): 93 % of control
- T/C (endpoint: mean survival time, dose: 150.0 mg/kg/injection, schedule: Q01DX001 (ip), vehicle: saline): 100 % of control
- T/C (endpoint: mean survival time, dose: 300.0 mg/kg/injection, schedule: Q01DX001 (ip), vehicle: saline): 104 % of control

SMILES: CC(=O)Nc1ccc(/C=N\NC(=O)C2CC2)cc1
- T/C [1]: 93 % of control
- T/C [2]: 96 % of control
- T/C [3]: 93 % of control

SMILES: O=C(Cl)N(c1ccccc1)c1ccccc1
- T/C (endpoint: mean survival time, dose: 100.0 mg/kg/injection, schedule: Q01DX001 (ip), vehicle: saline with Tween-80): 91 % of control
- T/C (endpoint: mean survival time, dose: 200.0 mg/kg/injection, schedule: Q01DX001 (ip), vehicle: saline with Tween-80): 100 % of control

SMILES: CN(C)c1ccc(N=Nc2cccc(C(=O)[O-])c2)cc1.CN(C)c1ccc(N=Nc2cccc(C(=O)[O-])c2)cc1.NC1CCCCC1N.O=[N+]([O-])O.[Pt+4]
- T/C (endpoint: median survival time, dose: 3.12 mg/kg/injection, schedule: Q04DX003 (ip), vehicle: saline with Tween-80): 104 % of control and 108 % of control
- T/C (endpoint: median survival time, dose: 6.25 mg/kg/injection, schedule: Q04DX003 (ip), vehicle: saline with Tween-80): 105 % of control and 110 % of control
- T/C (endpoint: median survival time, dose: 12.5 mg/kg/injection, schedule: Q04DX003 (ip), vehicle: saline with Tween-80): 120 % of control and 105 % of control
- T/C (endpoint: median survival time, dose: 25.0 mg/kg/injection, schedule: Q04DX003 (ip), vehicle: saline with Tween-80): 110 % of control
- T/C (endpoint: median survival time, dose: 100.0 mg/kg/injection, schedule: Q04DX003 (ip), vehicle: saline with Tween-80): 212 % of control and 313 % of control
- T/C (endpoint: median survival time, dose: 200.0 mg/kg/injection, schedule: Q04DX003 (ip), vehicle: saline with Tween-80): 361 % of control
